{"source": "ChEMBL document CHEMBL5331122", "about": "“Structure-Activity Relationship Study of Antimicrobial Peptide PE2 Delivered Novel Linear Derivatives with Potential of Eradicating Biofilms and Low Incidence of Drug Resistance” (J Med Chem, 2023)", "format_in_all_cases": "functional", "key": {"Escherichia coli [1]": {"system": "Escherichia coli", "test": "Antibacterial activity against Escherichia coli ATCC 25922 assessed as bacterial growth inhibition incubated for 18 hrs by broth microdilution method"}, "Klebsiella pneumoniae": {"system": "Klebsiella pneumoniae", "test": "Antibacterial activity against Klebsiella pneumoniae ATCC 700603 assessed as bacterial growth inhibition incubated for 18 hrs by broth microdilution method"}, "Pseudomonas aeruginosa": {"system": "Pseudomonas aeruginosa", "test": "Antibacterial activity against Pseudomonas aeruginosa ATCC 27853 assessed as bacterial growth inhibition incubated for 18 hrs by broth microdilution method"}, "Staphylococcus aureus [2]": {"system": "Staphylococcus aureus", "test": "Antibacterial activity against Staphylococcus aureus ATCC 25923 assessed as bacterial growth inhibition incubated for 18 hrs by broth microdilution method"}, "Bacillus subtilis": {"system": "Bacillus subtilis", "test": "Antibacterial activity against Bacillus subtilis ATCC 23857 assessed as bacterial growth inhibition incubated for 18 hrs by broth microdilution method"}, "Enterococcus faecalis": {"system": "Enterococcus faecalis", "test": "Antibacterial activity against Enterococcus faecalis ATCC 29212 assessed as bacterial growth inhibition incubated for 18 hrs by broth microdilution method"}, "Escherichia coli [3]": {"system": "Escherichia coli", "test": "Antibacterial activity against Escherichia coli ATCC 25922 assessed as fold increase in MIC in presence of NaCl"}, "Escherichia coli [4]": {"system": "Escherichia coli", "test": "Antibacterial activity against Escherichia coli ATCC 25922 assessed as fold increase in MIC in presence of KCl"}, "Escherichia coli [5]": {"system": "Escherichia coli", "test": "Antibacterial activity against Escherichia coli ATCC 25922 assessed as fold increase in MIC in presence of MgCl2"}, "Escherichia coli [6]": {"system": "Escherichia coli", "test": "Antibacterial activity against Escherichia coli ATCC 25922 assessed as fold increase in MIC in presence of ZnCl2"}, "Escherichia coli [7]": {"system": "Escherichia coli", "test": "Antibacterial activity against Escherichia coli ATCC 25922 assessed as fold increase in MIC in presence of FeCl3"}, "Staphylococcus aureus [8]": {"system": "Staphylococcus aureus", "test": "Antibacterial activity against Staphylococcus aureus ATCC 25923 assessed as fold increase in MIC in presence of NaCl"}, "Staphylococcus aureus [9]": {"system": "Staphylococcus aureus", "test": "Antibacterial activity against Staphylococcus aureus ATCC 25923 assessed as fold increase in MIC in presence of KCl"}, "Staphylococcus aureus [10]": {"system": "Staphylococcus aureus", "test": "Antibacterial activity against Staphylococcus aureus ATCC 25923 assessed as fold increase in MIC in presence of MgCl2"}, "Staphylococcus aureus [11]": {"system": "Staphylococcus aureus", "test": "Antibacterial activity against Staphylococcus aureus ATCC 25923 assessed as fold increase in MIC in presence of ZnCl2"}, "Staphylococcus aureus [12]": {"system": "Staphylococcus aureus", "test": "Antibacterial activity against Staphylococcus aureus ATCC 25923 assessed as fold increase in MIC in presence of FeCl3"}}, "note": "Where a SMILES comes first, the peptide text is derived from it. Bridges are numbered along the chain shown (N, C = ends). [ ]: non-standard residue; d: D form. The star is where a group is joined. Heptanoyl(6-Me) = CC(C)CCCCC(=O)*; Dab = NCC[C@H](N)C(=O)O", "data": [{"smiles": "CC(C)CCCCC(=O)N[C@@H](CCN)C(=O)N[C@H](C(=O)N[C@@H](CCN)C(=O)N[C@H]1CCNC(=O)[C@H]([C@@H](C)O)NC(=O)[C@H](CCN)NC(=O)[C@H](CCN)NC(=O)[C@H](CC(C)C)NC(=O)[C@@H](Cc2ccccc2)NC(=O)[C@H](CCN)NC1=O)[C@@H](C)O", "note": "({Heptanoyl(6-Me)}-[Dab]T[Dab][Dab][Dab][dF]L[Dab][Dab]T; lactam 4-C)", "values": [{"measurement": "MIC", "setting": "Escherichia coli [1]", "result": "< 1", "unit": "µg/mL"}, {"measurement": "MIC", "setting": "Klebsiella pneumoniae", "result": 4, "unit": "µg/mL"}, {"measurement": "MIC", "setting": "Pseudomonas aeruginosa", "result": 2, "unit": "µg/mL"}, {"measurement": "MIC", "setting": "Staphylococcus aureus [2]", "result": 16, "unit": "µg/mL"}, {"measurement": "MIC", "setting": "Bacillus subtilis", "result": 8, "unit": "µg/mL"}, {"measurement": "MIC", "setting": "Enterococcus faecalis", "result": 128, "unit": "µg/mL"}, {"measurement": "fold change (FC)", "setting": "Escherichia coli [3]", "result": "<=2"}, {"measurement": "fold change (FC)", "setting": "Escherichia coli [4]", "result": "<=2"}, {"measurement": "fold change (FC)", "setting": "Escherichia coli [5]", "result": "<=2"}, {"measurement": "fold change (FC)", "setting": "Escherichia coli [6]", "result": "<=2"}, {"measurement": "fold change (FC)", "setting": "Escherichia coli [7]", "result": "<=2"}, {"measurement": "fold change (FC)", "setting": "Staphylococcus aureus [8]", "result": 4}, {"measurement": "fold change (FC)", "setting": "Staphylococcus aureus [9]", "result": 4}, {"measurement": "fold change (FC)", "setting": "Staphylococcus aureus [10]", "result": 4}, {"measurement": "fold change (FC)", "setting": "Staphylococcus aureus [11]", "result": 4}, {"measurement": "fold change (FC)", "setting": "Staphylococcus aureus [12]", "result": 4}]}]}
